Assays:
[1] = system: impetiginous atopical eczema on the hands and feet; assay: case treatment of atopic eczema, topical; assay type: in vivo, human; conditions: same patient, before taurolidine treatment
Experimental: The patient was released with a prescription to apply Triclosan in a Dermatop-base cream upon need. The pustules were treated with methylrosaniline chloride solution. […] Further treatments included application of Dermatop-cream, Polyvidon-Iodine solution, crystal violet solution, and Nystatin-suspension. […] Treatment was then continued for another week at reduced frequency application such as once daily.

Staphylococcus aureus = conditions: cited from earlier work
skin sensitization = assay: Magnusson & Kligman-Test; assay type: in vivo
[2] = system: acne, inflamed lesions in the skin; assay: topical treatment of acne; assay type: in vivo, human

SMILES | condition under earlier therapy of atopical eczema [1] | minimal threshold of inhibitory concentration (Staphylococcus aureus) [mg/mL] | sensitization classification (skin sensitization) | local irritations and/or allergies ([2]; 2% taurolidine gel or emulsion on skin of affected patient) | side effects such as flaking, stinging and itching ([2]; 2% taurolidine gel or emulsion, topical) | reduction of inflamed lesions in the skin ([2]; hydroxyethylcellulose gel (or W/O or O/W emulsion) with 2% taurolidine, several days after application) [%]
C[C@]12C=CC(=O)C=C1CC[C@@H]1[C@@H]2[C@@H](O)C[C@@]2(C)[C@H]1CC[C@]2(O)C(=O)CO [Prednisolon] | the atopical eczema was not completely gone | – | – | – | – | –
COCC1=C(C(=O)O)N2C(=O)[C@@H](NC(=O)/C(=N\OC)c3csc(N)n3)[C@H]2SC1 [Cefpodoxim] | improved somewhat | – | – | – | – | –
O=S1(=O)CCN(CN2CCS(=O)(=O)NC2)CN1 [taurolidine, 4,4′-methylenebis-(1,2,4-thiadiazine-1,1-dioxide)] | – | 0.3 to 0.6 | non-sensitizing agent | no local irritations and/or allergies could be observed | No side effects | 50

Reference: patent publication US20050008684A1, “Method of treatment for acne, rosacea and ulcers with taurolidine and/or taurultam in a pharmaceutical composition” (priority 2003, published 2005)
